Drawing on PubChem BioAssay AID248 (DTP/NCI, 2004), this text covers T/C for 16 compounds.

“And” between values parts separate entries of the source, which are not always exact repeats. Equal values may be shown once. Toxic doses and inconclusive results are not listed.

This experiment has as its system L1210 leukemia ip in BDF1 mice, survival T/C. The experiment can be described thus: NCI In Vivo Anticancer Drug Screen. Data for tumor model L1210 Leukemia (intraperitoneal) in B6D2F1 (BDF1) mice. Conditions: endpoint: mean survival time, higher = longer survival. An outline of the steps:
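Transplanted-tumor mice were given test agent; controls received vehicle only. Survival readings from the two groups were divided (treated over control).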

[1] abbreviates: dose: 12.5 mg/kg/injection, schedule: Q01DX009 (ip), vehicle: Klucel (hydroxypropylcellulose) (HPC).
[2] abbreviates: dose: 12.5 mg/kg/injection, schedule: Q04DX003 (ip), vehicle: Klucel (hydroxypropylcellulose) (HPC).
[3] abbreviates: dose: 25.0 mg/kg/injection, schedule: Q04DX003 (ip), vehicle: Klucel (hydroxypropylcellulose) (HPC).
Where [4] appears, read: dose: 50.0 mg/kg/injection, schedule: Q04DX003 (ip), vehicle: Klucel (hydroxypropylcellulose) (HPC).
Where [5] appears, read: dose: 200.0 mg/kg/injection, schedule: Q01DX001 (ip), vehicle: saline.
Setting [6] is: dose: 400.0 mg/kg/injection, schedule: Q01DX001 (ip), vehicle: saline.
Setting [7] is: dose: 100.0 mg/kg/injection, schedule: Q01DX001 (ip), vehicle: saline.
[8] abbreviates: dose: 100.0 mg/kg/injection, schedule: Q04DX003 (ip), vehicle: Klucel (hydroxypropylcellulose) (HPC).
Where [9] appears, read: dose: 200.0 mg/kg/injection, schedule: Q01DX001 (ip), vehicle: saline with Tween-80.
[10] abbreviates: dose: 200.0 mg/kg/injection, schedule: Q04DX003 (ip), vehicle: Klucel (hydroxypropylcellulose) (HPC).
Setting [11] is: dose: 100.0 mg/kg/injection, schedule: Q04DX002 (ip), vehicle: saline with Tween-80.
Setting [12] is: dose: 400.0 mg/kg/injection, schedule: Q01DX001 (ip), vehicle: carboxymethylcellulose (CMC).
The mark [13] stands for this setting: dose: 100.0 mg/kg/injection, schedule: Q01DX001 (ip), vehicle: saline with Tween-80.
The mark [14] stands for this setting: dose: 400.0 mg/kg/injection, schedule: Q01DX001 (ip), vehicle: saline with Tween-80.

In the case of `CC(O)C#CC(C)O` (stereo not given), the T/C runs as follows: under setting [1], 89 % of control; under setting [2], 92 % of control; (dose: 25.0 mg/kg/injection, schedule: Q01DX009 (ip), vehicle: Klucel (hydroxypropylcellulose) (HPC)) 102 % of control; under setting [3], 96 % of control; (dose: 50.0 mg/kg/injection, schedule: Q01DX009 (ip), vehicle: Klucel (hydroxypropylcellulose) (HPC)) 103 % of control; under setting [4], 103 % of control.
With `O=S(=O)(Nc1nccs1)c1ccc(N=Nc2ccc(O)c3ncccc23)cc1`, the T/C runs as follows: under setting [5], 102 % of control; under setting [6], 101 % of control.
In the case of `O=C(/C=C(\C(=O)c1ccccc1)c1ccccc1)c1ccccc1`, the T/C under setting [4] was 95 % of control; the T/C under setting [7] is 92 % of control; the T/C (dose: 100.0 mg/kg/injection, schedule: Q01DX009 (ip), vehicle: Klucel (hydroxypropylcellulose) (HPC)) is 95 % of control; the T/C under setting [8] was 101 % of control; the T/C under setting [9] is 90 % of control; the T/C under setting [5] is 95 % of control. The T/C (dose: 200.0 mg/kg/injection, schedule: Q01DX009 (ip), vehicle: Klucel (hydroxypropylcellulose) (HPC)) was 102 % of control; the T/C under setting [10] is 102 % of control; the T/C (dose: 400.0 mg/kg/injection, schedule: Q01DX009 (ip), vehicle: Klucel (hydroxypropylcellulose) (HPC)) was 98 % of control.
Regarding `O=P(NC12CC3CC(CC(C3)C1)C2)(N1CC1)N1CC1`, the T/C by setting is: (dose: 4.0 mg/kg/injection, schedule: Q04DX003 (ip), vehicle: Klucel (hydroxypropylcellulose) (HPC)) 107 % of control; (dose: 9.0 mg/kg/injection, schedule: Q04DX003 (ip), vehicle: Klucel (hydroxypropylcellulose) (HPC)) 150 % of control; (dose: 13.3 mg/kg/injection, schedule: Q04DX003 (ip), vehicle: Klucel (hydroxypropylcellulose) (HPC)) 152 % of control and 182 % of control; (dose: 20.0 mg/kg/injection, schedule: Q04DX003 (ip), vehicle: Klucel (hydroxypropylcellulose) (HPC)) 155 % of control and 176 % of control and 225 % of control; (dose: 27.0 mg/kg/injection, schedule: Q01DX001 (ip), vehicle: Klucel (hydroxypropylcellulose) (HPC)) 169 % of control; (dose: 30.0 mg/kg/injection, schedule: Q04DX003 (ip), vehicle: Klucel (hydroxypropylcellulose) (HPC)) 92 % of control.
Take `Cc1cc2oc(=O)c3c(c2c(O)c1CN1CCN(C)CC1)CCCC3`: the T/C runs as follows: under setting [7], 95 % of control; under setting [5], 92 % of control.
In the case of `O=C1CCC(=O)N1SC(Cl)(Cl)Cl`, the T/C (dose: 7.5 mg/kg/injection, schedule: Q01DX009 (ip), vehicle: saline) was 101 % of control; the T/C (dose: 15.0 mg/kg/injection, schedule: Q01DX009 (ip), vehicle: saline) was 101 % of control; the T/C (dose: 30.0 mg/kg/injection, schedule: Q01DX009 (ip), vehicle: saline) is 106 % of control; the T/C (dose: 45.0 mg/kg/injection, schedule: Q01DX009 (ip), vehicle: saline) was 99 % of control; the T/C (dose: 70.0 mg/kg/injection, schedule: Q01DX009 (ip), vehicle: saline) was 92 % of control; the T/C (dose: 100.0 mg/kg/injection, schedule: Q01DX001 (ip), vehicle: other) was 103 % of control. For the same compound, the T/C is 87 % of control under setting [11]; 89 % of control (dose: 105.0 mg/kg/injection, schedule: Q01DX009 (ip), vehicle: saline); 95 % of control (dose: 200.0 mg/kg/injection, schedule: Q01DX001 (ip), vehicle: other); 88 % of control (dose: 240.0 mg/kg/injection, schedule: Q01DX009 (ip), vehicle: saline); 98 % of control (dose: 300.0 mg/kg/injection, schedule: Q01DX001 (ip), vehicle: other); 86 % of control (dose: 360.0 mg/kg/injection, schedule: Q01DX009 (ip), vehicle: saline).
`NP1(N)=NP(N)(N)=NP(N)(N)=N1`: the T/C is 90 % of control (dose: 100.0 mg/kg/injection, schedule: Q04DX002 (ip), vehicle: saline); 93 % of control (dose: 200.0 mg/kg/injection, schedule: Q04DX002 (ip), vehicle: saline); 97 % of control (dose: 400.0 mg/kg/injection, schedule: Q04DX002 (ip), vehicle: saline).
As for `COc1cc(C=Nc2ccccc2)cc(OC)c1OC`, the T/C was 104 % of control under setting [8]; 102 % of control under setting [10]; 95 % of control (dose: 400.0 mg/kg/injection, schedule: Q04DX003 (ip), vehicle: Klucel (hydroxypropylcellulose) (HPC)).
As for `O=[N+]([O-])c1ccc(OCCOc2ccc([N+](=O)[O-])cc2)cc1`, the T/C under setting [7] was 103 % of control, the T/C under setting [5] is 107 % of control and the T/C under setting [6] is 97 % of control.
As for `O=C(O)CCSC(=S)Nc1ccccc1O`, the T/C (dose: 100.0 mg/kg/injection, schedule: Q01DX001 (ip), vehicle: carboxymethylcellulose (CMC)) is 103 % of control; the T/C (dose: 200.0 mg/kg/injection, schedule: Q01DX001 (ip), vehicle: carboxymethylcellulose (CMC)) was 93 % of control; the T/C under setting [12] is 98 % of control.
As to `CCCCCCCCCCCC(C1CCC(C)CC1)C1CCC(C)CC1` (stereo not given), the T/C under setting [13] is 95 % of control and the T/C under setting [14] was 89 % of control.
Turning to `O=C(N[C@@H](c1ccccc1)[C@H](N=Cc1ccccc1)c1ccccc1)c1ccccc1`, the T/C (dose: 50.0 mg/kg/injection, schedule: Q01DX009 (ip), vehicle: saline) is 93 % of control; the T/C (dose: 50.0 mg/kg/injection, schedule: Q04DX003 (ip), vehicle: saline) was 95 % of control; the T/C (dose: 100.0 mg/kg/injection, schedule: Q01DX009 (ip), vehicle: saline) was 90 % of control; the T/C (dose: 100.0 mg/kg/injection, schedule: Q04DX003 (ip), vehicle: saline) is 86 % of control and 92 % of control; the T/C (dose: 200.0 mg/kg/injection, schedule: Q01DX009 (ip), vehicle: saline) is 87 % of control; the T/C (dose: 200.0 mg/kg/injection, schedule: Q04DX003 (ip), vehicle: saline) is 94 % of control. Besides, the T/C by setting is: (dose: 400.0 mg/kg/injection, schedule: Q01DX009 (ip), vehicle: saline) 95 % of control and 87 % of control; (dose: 400.0 mg/kg/injection, schedule: Q04DX003 (ip), vehicle: saline) 86 % of control and 92 % of control.
For `COc1ccc(CCO)cc1OC`, the T/C was 95 % of control (dose: 50.0 mg/kg/injection, schedule: Q01DX001 (ip), vehicle: carboxymethylcellulose (CMC)); 93 % of control (dose: 100.0 mg/kg/injection, schedule: Q01DX009 (ip), vehicle: water); 100 % of control (dose: 100.0 mg/kg/injection, schedule: Q04DX003 (ip), vehicle: water); 93 % of control (dose: 200.0 mg/kg/injection, schedule: Q01DX009 (ip), vehicle: water); 97 % of control (dose: 200.0 mg/kg/injection, schedule: Q04DX003 (ip), vehicle: water); 97 % of control under setting [12]. For the same compound, the T/C reads like this: (dose: 400.0 mg/kg/injection, schedule: Q01DX009 (ip), vehicle: water) 95 % of control; (dose: 400.0 mg/kg/injection, schedule: Q04DX003 (ip), vehicle: water) 97 % of control.
`O=Nc1ccc2cc(O)ccc2c1O`: the T/C by setting is: (dose: 1.56 mg/kg/injection, schedule: Q01DX009 (ip), vehicle: Klucel (hydroxypropylcellulose) (HPC)) 96 % of control; (dose: 3.12 mg/kg/injection, schedule: Q01DX009 (ip), vehicle: Klucel (hydroxypropylcellulose) (HPC)) 96 % of control; (dose: 6.25 mg/kg/injection, schedule: Q01DX009 (ip), vehicle: Klucel (hydroxypropylcellulose) (HPC)) 104 % of control; under setting [1], 101 % of control; under setting [2], 103 % of control; under setting [3], 97 % of control. Also, under setting [4], the T/C is 100 % of control.
With `CCCCCCCCC(CCCCCCCC)C1CCCCC1`, the T/C was 98 % of control under setting [13], 95 % of control under setting [9] and 93 % of control under setting [14].
`ClCc1noc(-c2ccccc2)n1`: the T/C runs as follows: under setting [11], 98 % of control; (dose: 200.0 mg/kg/injection, schedule: Q04DX002 (ip), vehicle: saline with Tween-80) 95 % of control; (dose: 400.0 mg/kg/injection, schedule: Q04DX002 (ip), vehicle: saline with Tween-80) 101 % of control.
